{"source": "patent US9745257B2", "about": "“Phenyl-guanidine derivatives” (Universidad Nacional de Quilmes, priority 2011, dated 2017)", "key": {"[1]": {"tested_on": "LN229 (human glioblastoma)", "experiment": "Proliferation assay (MTT), LN229 cells", "assay_type": "cell-based", "details": "LN-229, 72 h, 10% FBS", "method": "(§1) Cells were maintained in monolayer culture with the corresponding media, supplemented with 5% fetal bovine serum (FBS) previously inactivated with heat, 2 mM glutamine and […] gentamicine.\n(§2) The cells were treated for 72 hours in the presence of FBS 10% with different doses of the compounds in 96 wells at a 2500 cell/well density. The cell growth was estimated by MTT test, for which to the cell monolayers was added MTT, incubated and resuspended in DMSO. Finally, the number of cells was estimated by measuring the absorbance values at 570 nm.\n(§3) Compound (65) as a representative example of Rac1 inhibitor compounds according to the present invention was tested in cell proliferation assays performed with following cancer cell lines F3II (murine mammary carcinoma), 3LL (murine lung carcinoma), LN229 (human glioblastoma), MCF7 (human mammary carcinoma), H125 (human lung carcinoma), PC3 (human prostate adenocarcinoma) and MDA-MB-231 (human mammary carcinoma).\nas §2, with “trated” for “treated”"}, "[2]": {"tested_on": "F3II (murine mammary carcinoma)", "experiment": "Proliferation assay (MTT), F3II cells", "assay_type": "cell-based", "details": "Mus musculus, 72 h, 10% FBS", "method": "as §1, §2, §3"}, "[3]": {"tested_on": "MDA-MB-231 (human mammary carcinoma)", "experiment": "Proliferation assay (MTT), MDA-MB-231 cells", "assay_type": "cell-based", "details": "72 h, 10% FBS", "method": "as §1, §2, §3"}, "Rac1": {"biological_target": "T1, Rac1 (Homo sapiens, UniProt P63000)", "T1 construct": "endogenous in cells; host or cells: LN229 (human glioblastoma)", "experiment": "Pull-Down assay of intracellular active Rac levels (Rac-GTP) in LN229 cells", "assay_type": "cell-based", "details": "10 μM, EGF 100 ng/ml, FIG. 3", "method": "This assay consists in the determination of inhibition power of the compounds of the invention over the intracellular active Rac1 levels (Rac-GTP). For determining the levels of Rac-GTP, the “Pull-Down” assay was used, which is based in the conformation bond of Rac-GTP to the p21 domain of PAK1 protein, which is the direct effector of Rac-GTP (Wanf H. et al.; J. Biol. Che. 2002, 277: 4541-4550).\nLN229 cells (human glioblastoma) were seeded in 6-well cell culture plaques and were kept in absence of FBS for 48 hours (starvation). Afterwards, they were treated with compounds (25) and (65) and they were stimulated for 15 minutes with EGF (100 ng/ml), washed with phosphate buffered saline (PBS) at low temperature and lysated in a buffer containing 8 μg of the fusion protein GST-PBD, […] Tris-HCl, pH 7.5, […] DTT, 5 mM MgCl2, 150 mM NaCl, 0.5% NP-40, 5 mM β-glicerophosphate and protease inhibitors (5 μg/ml 4-(2-aminoethyl)bencenesulfonyl fluoride, 5 μg (ml leupeptin, 5 μg/ml aprotinin and 1 μg/ml pepstatin A). The lysates were centrifuged at 14,000×g (4° C., 10 min) and then incubated with Glutation-Agarose Beads (GAB, Amersham Pharmacia) previously fitted with GST-Pak at 4° C. for 1 hour. After washing, the GABs were boiled for 5 minutes in loading buffer. […] The total Rac levels were analyzed in a similar way from aliquots taken from the cell lysate."}, "[4]": {"tested_on": "F3II mammary carcinoma cells", "experiment": "Antimetastatic effect, metastatic lung colonization by F3II cells in mice", "assay_type": "in vivo", "details": "25 mg/kg/day i.p., days 0 to 21, F3II cells i.v., BALB/c mice, FIG. 9", "method": "Specific pathogen-free female BALB/c inbred mice from UNLP (Buenos Aires, Argentina), with an age of 8-10 weeks and a average weight of 20 g, were used. They were housed in plastic cages under standard conditions and had access to rodent chow and water ad libitum. On the designated day 0 of the experiment, F3II mammary carcinoma cells were injected into the lateral tail vein of unanesthetized mice at a concentration of 2×10^5 viable cells/0.3 ml DMEM/mice. At day 21, animals were sacrificed by cervical dislocation and necropsied. To investigate the presence of lung metastasis, lungs were removed, fixed in Bouin's solution and the number of surface nodules was determined under a dissecting microscope.\n(§4) To study the effect of compound (25) on metastatic lung colonization, mice were injected i.p at daily doses of 25 mg/kg body weight from days 0 to 21."}, "[5]": {"experiment": "Tolerability and animal weight in mice", "assay_type": "in vivo", "details": "adult female BALB/c mice, 25 mg/kg/day i.p.", "method": "as §4"}, "[6]": {"tested_on": "LN229 human glioblastoma cells", "experiment": "Polymerization of actin filaments by immunofluorescence in LN229 cells", "assay_type": "cell-based", "details": "LN229 starved 24 h, treated 1 hour, EGF stimulated, FIG. 5", "method": "The effect of compound (65) over the polymerization of actin filaments was evaluated by immunofluorescence with conjugated faloidine with the fluorochrome AlexaFluor (Invitrogen). LN229 human glioblastoma cells were starvated for 24 hours, treated with compound (65) for 1 hour, and stimulated with EGF. […] An accurate sign of cellular boundaries is observed in all cells due to the cortical actin marking."}, "[7]": {"tested_on": "H125 (human lung carcinoma)", "experiment": "Proliferation assay (MTT), H125 cells", "assay_type": "cell-based", "details": "NCI-H125, 72 h, 10% FBS, average of three experiments", "method": "as §1, §2, §3"}, "LN229 cells": {"tested_on": "LN229 cells", "experiment": "Cell cycle effect by flow cytometry", "assay_type": "cell-based, human", "method": "The effect of compound (65) on the cell cycle was studied by flow citometry. It is known that Rac1 GTPase is related with transcription of molecules such as cyclin D1, which are required to progress from G1 phase to S phase. Inhibition of Rac1 induces cell arrest in G0-G1 phase.\nLN229 cells synchronized in G0-G1 phase and stimulated for 24 hours with FBS were treated with compound (65)."}, "[8]": {"tested_on": "3LL (murine lung carcinoma)", "experiment": "Proliferation assay (MTT), 3LL cells", "assay_type": "cell-based", "details": "Mus musculus, 72 h, 10% FBS, average of three experiments", "method": "as §1, §2, §3"}, "[9]": {"tested_on": "PC3 (human prostate adenocarcinoma)", "experiment": "Proliferation assay (MTT), PC3 cells", "assay_type": "cell-based", "details": "PC-3, 72 h, 10% FBS, average of three experiments", "method": "as §1, §2, §3"}, "[10]": {"tested_on": "LN229 human glioblastoma cells", "experiment": "Trans-well migration assay", "assay_type": "cell-based", "details": "10 μM, 50 μM and 100 μM, 24 hours, FIG. 6", "method": "Cell motility is a key process in the invasion and tumor metastasis processes and it is closely regulated by the Rho-GTPases family, particularly by Rac. This assay consists in the determination of the antimigration effect of compound (65) on LN229 human glioblastoma cells.\nThe cell migration in vitro was measured by the trans-well migration assay, wherein LN229 cells previously treated with different concentrations (10 μM, 50 μM and 100 μM) of compound (65) and serum deprived were placed on the upper layer of a cell permeable membrane of a trans-well plaque. Following an incubation perior of 24 hours, the cells migrated through the 8 μm pores of the membrane to the lower layer."}, "[11]": {"tested_on": "MCF7 (human mammary carcinoma)", "experiment": "Proliferation assay (MTT), MCF7 cells", "assay_type": "cell-based", "details": "72 h, 10% FBS, average of three experiments", "method": "as §1, §2, §3"}, "Rac-Tiam complex": {"biological_target": "T2, Rac-Tiam complex (Homo sapiens, UniProt P63000)", "T2 construct": "GST", "experiment": "Precipitation affinity of Tiam with recombinant GST-Rac (Western Blot anti Tiam1)", "assay_type": "binding", "details": "Western Blot anti Tiam1 vs. control, FIG. 2", "method": "Compounds (65) and (25) were tested in order to determine its inhibition power over the interaction Rac-Tiam. Thus, the precipitation affinity of Tiam with the recombinant protein GST-Rac was evaluated in presence of compound (65)."}, "[12]": {"details": "read-out: IC50 (μM) tested in LN229 cells (Table 2)"}}, "note": "Like-named read-outs stand apart in the source and are kept apart here.", "data": [{"smiles": "N=C(Nc1ccccc1)Nc1ccccc1C(F)(F)F", "note": "[(27), N-phenyl-N′-[2-(trifluoromethyl)phenyl]guanidine]", "values": [{"measurement": "IC50", "setting": "[1]; [12]", "value": 211, "unit": "µM"}, {"measurement": "melting point", "value": "108 to 109", "unit": "°C"}]}, {"smiles": "N=C(Nc1cccc([N+](=O)[O-])c1)Nc1ccccc1C(F)(F)F", "note": "[(41), N-(3-nitrophenyl)-N′-[2-(trifluoromethyl)phenyl]guanidine]", "values": [{"measurement": "IC50", "setting": "[1]; [12]", "value": 88, "unit": "µM"}]}, {"smiles": "Cc1ccccc1NC(=N)Nc1ccccc1C(F)(F)F", "note": "[(64), N-(2-methylphenyl)-N′-[2-(trifluoromethyl)phenyl]guanidine]", "values": [{"measurement": "IC50", "setting": "[1]; [12]", "value": 175, "unit": "µM"}, {"measurement": "melting point", "value": 129, "unit": "°C"}]}, {"smiles": "Cc1cc(C)cc(NC(=N)Nc2ccccc2C(F)(F)F)c1", "note": "[Compound (25), N-(3,5-dimethylphenyl)-N′-[2-(trifluoromethyl)phenyl]guanidine]", "values": [{"measurement": "IC50", "setting": "[2]; read-out: IC50 values, F3II (Table 3)", "value": 36, "unit": "µM"}, {"measurement": "IC50", "setting": "[1]; [12]", "value": 73, "unit": "µM"}, {"measurement": "IC50", "setting": "[3]; read-out: IC50 values, MDA-MB-231 (Table 3)", "value": 40, "unit": "µM"}, {"measurement": "Effect over the intracellular active Rac levels (Rac-GTP)", "setting": "Rac1", "value": "inhibitory effect"}, {"measurement": "Reduction of the formation of metastatic lung colonies", "setting": "[4]", "value": "about 35%"}, {"measurement": "Changes in animal weight compared to the control group", "setting": "[5]", "value": "no significant changes in animal weight"}, {"measurement": "Tolerability", "setting": "[5]", "value": "well tolerated"}]}, {"smiles": "Cc1cc(C)nc(NC(=N)Nc2ccccc2C(F)(F)F)n1", "note": "[Compound (65), N-[4,6-bis(methyl)pyrimidin-2-yl]-N′-[2-(trifluoromethyl)phenyl]guanidine]", "values": [{"measurement": "Intracellular fibrillar actin levels", "setting": "[6]", "value": "decreasing of intracellular fibrilar actin levels"}, {"measurement": "IC50", "setting": "[2]; average of three experiments, read-out: IC50 values, F3II", "value": 61, "unit": "µM"}, {"measurement": "IC50", "setting": "[1]; average of three experiments, read-out: IC50 values, LN229", "value": 73, "unit": "µM"}, {"measurement": "IC50", "setting": "[7]", "value": 127, "unit": "µM"}, {"measurement": "Cell population in G0-G1 phase", "setting": "LN229 cells; 50 μM, LN229 synchronized in G0-G1, stimulated 24 hours with FBS, controls 25%", "value": 60, "unit": "%"}, {"measurement": "Cell cycle arrest", "setting": "LN229 cells; LN229 cells, FIG. 7", "value": "arrests tumoral cells in G0-G1 phase in a dose dependent manner"}, {"measurement": "IC50", "setting": "[3]; average of three experiments, read-out: IC50 values, MDA-MB-231", "value": 48, "unit": "µM"}, {"measurement": "IC50", "setting": "[8]", "value": 68, "unit": "µM"}, {"measurement": "Effect over the intracellular active Rac levels (Rac-GTP)", "setting": "Rac1", "value": "inhibitory effect"}, {"measurement": "IC50", "setting": "[9]", "value": 138, "unit": "µM"}, {"measurement": "Cell migration", "setting": "[10]", "value": "significantly decreased the cell migration in a dose dependent manner"}, {"measurement": "IC50", "setting": "[11]", "value": 44, "unit": "µM"}, {"measurement": "Effect over Rac-Tiam complex (Rac interaction with the activator)", "setting": "Rac-Tiam complex", "value": "decrease of Rac interaction with the activator"}]}]}
